One data set has as its system C. diphteria/62001. Put plainly: MIC, microtitter plates, liquid medium containing broth. Type of data set: cell-based. How it is done: (§1) In vitro investigations have evidenced high potency of compounds of the invention against several bacteria including staphylococci, streptococci, corynebacteriae and mycobacteriae. […] The biological tests are conducted on microtitter plates using liquid medium containing broth.

Data set [1] deals with E. faecalis/V583 P. Cour. Described as above. Format: cell-based. Conditions: VanR. How it is done:
as §1

A further data set relates to M. tuberculosis/R 498. The data set is described as above. Format: cell-based. As to the method:
as §1

For the next data set, the system named is N. gonorrhoea/C1. The description is as above. Format: cell-based. As to the method: as §1
Another data set has as its system N. meningitidis/K1. The description is as above. Format: cell-based. As to the method: as §1
Another data set relates to P. acnes/1060. The data set is described as above. Format: cell-based. How it is done: as §1
The next data set concerns S. aureus/1 Aus-pe. Described as above. Type of data set: cell-based. To be noted: FusS, MRSA. As to the method:
as §1

Another data set has as its system S. aureus/22 DK. The data set is described as above. Conditions: FusS, MSSA. Format: cell-based. How it is done: as §1
Another data set has as its system S. aureus/54 USA-br. Described as above. Type of data set: cell-based. To be noted: FusR, MSSA. How it is done:
as §1

A further data set deals with S. aureus/ATCC 29213. Described as above. Type of data set: cell-based. Conditions: FusS. As to the method:
as §1

Another data set deals with Staphylococcus/291-2. The data set is described as above. Format: cell-based. Conditions: Staphylococcus/291-2, coagulase negative, FusS. As to the method: as §1
The test system of the next data set is Staphylococcus/379-2. Described as above. Conditions: Staphylococcus/379-2, coagulase negative, FusR. Type of data set: cell-based. How it is done:
as §1

In data set [2] the test system is Streptococcus - gr.A/67011. The data set is described as above. Type of data set: cell-based. How it is done: as §1
The subject of another data set is Streptococcus - gr.B/61. The description is as above. Format: cell-based. How it is done: as §1
A further data set concerns Streptococcus - gr.C/68. The data set is described as above. Type of data set: cell-based. As to the method: as §1
The next data set concerns Streptococcus - gr.G/59. The description is as above. Format: cell-based. How it is done:
as §1

The next data set relates to S. aureus ATCC2977. Put plainly: MIC, agar diffusion method (European Pharmacopoeia 3rd Ed.). Type of data set: cell-based. As to the method:
(§2) The antibacterial activity of some of these compounds relative to fusidic acid appears from Table 2 showing MIC values for compounds of the invention. The method used is recommended by the European Pharmacopoeia 3rd Ed. (1997) for testing the potency of antibiotics. It is an agar diffusion method where the same volume of the tested solution is added to cavities in agar. The inhibition zones are a function of the concentration of the fusidic acid analogue used. All assays are run with fusidic acid (1) as the reference substance. The results in Table 2 differ from those of Table 1 due to the different experimental methods used.
Background: Agar diffusion results depend on both activity and mobility in agar.

The test system of another data set is S. aureus ATCC6538P. The description is as above. Format: cell-based. How it is done:
as §2

The test system of a further data set is S. aureus Leo id. CJ232. The data set is described as above. To be noted: S. aureus Leo id. CJ232, MRSA. Type of data set: cell-based. How it is done:
as §2

The next data set concerns S. aureus Leoid CJ234(R). The description is as above. To be noted: MRSA and Rifampicin resistant. Format: cell-based. As to the method:
as §2

In data set [3] the test system is Strep. epidermis A. ATCC12228. Described as above. Format: cell-based. How it is done: as §2
The test system of data set [4] is Strep. faecalis ATCC10541. Described as above. Format: cell-based. How it is done:
as §2

Data set [5] has as its system Strep. faecium Leo id. E119(P). The data set is described as above. Format: cell-based. To be noted: Penicillin resistant. As to the method: as §2
Data set [6] deals with Strep. sp. Gr.B Leo id. EF6. The description is as above. Type of data set: cell-based. As to the method: as §2
A short description of data set [7]: Stability in ethanol solution (retained activity). Type of data set: physicochemical. Conditions: solution in ethanol stored at 0° C. for 1 month.
For data set [8] the following is noted: relative to fusidic acid; reduction of C-24/C-25 and C-17/C-20 double bonds; cited from earlier work.
Where [9] appears, read: read-out: MIC values (concentrations in μg/ml required for 90% inhibition).
Setting [10] is: Enterococcus faecalis, read-out: MIC values (concentrations in μg/ml required for 90% inhibition).
The mark [11] stands for this setting: Staphylococcus aureus, read-out: MIC values (concentrations in μg/ml required for 90% inhibition).

This is an account of results in patent US6593319B1, “Fusidic acid derivatives” (Leo Pharmaceutical Products, Ltd. A/S, priority 2001, dated 2003).

≈ marks a conversion by molar mass, not a printed value.

On to `CC(=O)OC1CC2(C)C(CC(O)C3C4(C)CCC(O)C(C)C4CCC32C)C1C(CCC=C(C)C)C(=O)O` [Compound 101, 17(S),20(S)-Dihydrofusidic Acid], for which the “MIC values (concentrations in μg/ml required for 90% inhibition)” value was found to be 0.063 µg/mL with C. diphteria/62001; 16 µg/mL in data set [1]; 16 µg/mL in the data set with M. tuberculosis/R 498; 4 µg/mL against N. gonorrhoea/C1; 1 µg/mL with N. meningitidis/K1; 0.5 µg/mL in the data set with P. acnes/1060. For the same compound, the “MIC values (concentrations in μg/ml required for 90% inhibition)” value against S. aureus/1 Aus-pe turned out to be 1 µg/mL; in the data set on S. aureus/22 DK, 1 µg/mL; with S. aureus/54 USA-br it was 8 µg/mL; in the data set with S. aureus/ATCC 29213 (MSSA), 1 µg/mL; in the data set on Staphylococcus/291-2, 1 µg/mL; against Staphylococcus/379-2, 64 µg/mL. For the same compound, the “MIC values (concentrations in μg/ml required for 90% inhibition)” value in [2] was 64 µg/mL; against Streptococcus - gr.B/61, above 64 µg/mL; in the data set with Streptococcus - gr.C/68 it was 4 µg/mL; with Streptococcus - gr.G/59, 8 µg/mL; in the data set on S. aureus ATCC2977, 0.001 µg/mL; against S. aureus ATCC6538P it was 0.002 µg/mL. The “MIC values (concentrations in μg/ml required for 90% inhibition)” value against S. aureus Leo id. CJ232 turned out to be 0.003 µg/mL; against S. aureus Leoid CJ234(R), 0.001 µg/mL; in [3], 0.001 µg/mL; in data set [4], 3.7 µg/mL; in [5], 1.2 µg/mL; in data set [6] it was 3.5 µg/mL. In data set [7], the retained initial activity was above 80%.

Take `COCO[C@H]1C[C@@]2(C)[C@@H](C[C@@H](O)[C@H]3[C@@]4(C)CC[C@@H](O)[C@@H](C)[C@@H]4CC[C@@]32C)[C@H]1[C@H](CCC=C(C)C)C(=O)O` [Compound 128, 16-Deacetoxy-16β-methoxymethoxy-17(S),20(S)-dihydrofusidic acid]: the “MIC values (concentrations in μg/ml required for 90% inhibition)” value is 0.19 µg/mL against S. aureus ATCC2977; 0.26 µg/mL against S. aureus ATCC6538P; above 64 µg/mL against S. aureus Leo id. CJ232; above 64 µg/mL in the data set with S. aureus Leoid CJ234(R); 0.5 µg/mL in [3]; 16 µg/mL in [4]. The “MIC values (concentrations in μg/ml required for 90% inhibition)” value in data set [5] and in data set [6] was 16 µg/mL each time.

Regarding `CC(=O)O[C@H]1C[C@@]2(C)[C@@H](C[C@@H](O)[C@H]3[C@@]4(C)CC[C@@H](O)[C@@H](C)[C@@H]4CC[C@@]32C)/C1=C(\CCC=C(C)C)C(=O)O` [Fusidic acid (1), Fusidic acid], the MIC in the data set with C. diphteria/62001 (setting [9]) is 0.063 µg/mL (≈ 0.122 µM); in data set [1] (setting [10]), 16 µg/mL (≈ 31 µM); in the data set on M. tuberculosis/R 498 (Mycobacterium tuberculosis, read-out: MIC values (concentrations in μg/ml required for 90% inhibition)), above 16 µg/mL; in the data set with N. gonorrhoea/C1 (setting [9]) it was 1 µg/mL (≈ 1.94 µM); in the data set on N. meningitidis/K1 (Neisseria meningitidis, read-out: MIC values (concentrations in μg/ml required for 90% inhibition)), 0.25 µg/mL (≈ 0.484 µM); in the data set with P. acnes/1060 (Cutibacterium acnes, read-out: MIC values (concentrations in μg/ml required for 90% inhibition)), 0.125 µg/mL (≈ 0.242 µM). For the same compound, the MIC was 1 µg/mL (≈ 1.94 µM) in the data set on S. aureus/1 Aus-pe (setting [11]); 0.5 µg/mL (≈ 0.968 µM) with S. aureus/22 DK (setting [11]); 8 µg/mL (≈ 15.5 µM) in the data set with S. aureus/54 USA-br (setting [11]); 1 µg/mL (≈ 1.94 µM) with S. aureus/ATCC 29213 (Staphylococcus aureus, ATCC 29213 / MSSA, read-out: MIC values (concentrations in μg/ml required for 90% inhibition)); 1 µg/mL (≈ 1.94 µM) in the data set with Staphylococcus/291-2 (setting [9]); 64 µg/mL (≈ 124 µM) with Staphylococcus/379-2 (setting [9]). Besides, the MIC in [2] (setting [9]) stood at 16 µg/mL (≈ 31 µM); in the data set with Streptococcus - gr.B/61 (setting [9]), 32 µg/mL (≈ 61.9 µM); in the data set on Streptococcus - gr.C/68 (setting [9]) it was 2 µg/mL (≈ 3.87 µM); with Streptococcus - gr.G/59 (setting [9]), 4 µg/mL (≈ 7.74 µM); in the data set on S. aureus ATCC2977 (setting [11]), 0.01 µg/mL (≈ 0.0194 µM); with S. aureus ATCC6538P (setting [11]) it was 0.013 µg/mL (≈ 0.0252 µM). Moreover, the MIC in the data set with S. aureus Leo id. CJ232 (setting [11]) stood at 0.012 µg/mL (≈ 0.0232 µM); in the data set on S. aureus Leoid CJ234(R) (setting [11]), 0.01 µg/mL (≈ 0.0194 µM); in data set [3] (setting [9]), 0.01 µg/mL (≈ 0.0194 µM); in data set [4] (setting [10]), 4.9 µg/mL (≈ 9.48 µM); in [5] (Enterococcus faecium, read-out: MIC values (concentrations in μg/ml required for 90% inhibition)), 2.7 µg/mL (≈ 5.23 µM); in data set [6] (setting [9]), 4.9 µg/mL (≈ 9.48 µM). For the same compound, the retained initial activity entry in data set [7] is given as “about 70%”.

As for tetrahydrofusidic acid, the antibacterial activity entry in data set [8] was “almost complete loss of activity”.
